Experimental data: US10508077B2 (FORMA Therapeutics, Inc., priority 2015, dated 2019)

Molecular target: T1, Full length human recombinant HDAC8 protein (Homo sapiens, UniProt Q9BY41)
T1 construct: Full length human recombinant HDAC8 protein was expressed in baculoviral system; made in house
T1 sequence (Q9BY41 1-377): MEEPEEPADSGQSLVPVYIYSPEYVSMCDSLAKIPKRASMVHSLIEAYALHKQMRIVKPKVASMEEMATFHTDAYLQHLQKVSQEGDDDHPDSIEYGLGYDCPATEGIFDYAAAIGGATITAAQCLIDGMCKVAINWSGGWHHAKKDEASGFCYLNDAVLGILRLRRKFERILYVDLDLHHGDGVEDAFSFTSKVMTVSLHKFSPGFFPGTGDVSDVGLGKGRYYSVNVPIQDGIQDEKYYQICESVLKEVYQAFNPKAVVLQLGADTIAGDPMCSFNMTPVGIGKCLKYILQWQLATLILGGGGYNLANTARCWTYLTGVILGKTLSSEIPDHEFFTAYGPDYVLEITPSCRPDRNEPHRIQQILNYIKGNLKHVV
Test: In vitro histone deacetylase assay: enzymatic HDAC8 assay, electrophoretic mobility shift
Type: biochemical
Details: substrate RHKK(Ac)-NH2, 1 nM enzyme, compounds listed under IC50 range headings
Procedure: The enzymatic HDAC8 assay was performed using electrophoretic mobility shift assay. Full length human recombinant HDAC8 protein was expressed in baculoviral system and purified by affinity chromatography. The enzymatic reactions were assembled in 384 well plates in a total volume of 25 μL in a reaction buffer composing: 100 mM HEPES, pH7.5, 25 mM KC, 0.1% bovine serum albumin, 0.01% Triton X-100, 1% DMSO (from compounds) 2 μM of the fluorescently labeled peptide substrate and enzyme. The enzyme was added at a final concentration of 1 nM. The peptide substrate RHKK(Ac)-NH2 was used. The compounds were tested at 12 concentrations spaced by 3× dilution intervals. Negative control samples (0%-inhibition in the absence of inhibitor) and positive control samples (100%-inhibition) were assembled in replicates of four in each assay plate. The reactions were incubated at 25° C. and quenched by the addition of 45 μL of termination buffer (100 mM HEPES, pH 7.5, 0.01% Triton X-100, 0.05% SDS).
The terminated assay plates were analyzed on LabChip® 3000 microfluidic electrophoresis instrument (Perkin Elmer/Caliper Life Sciences). The fluorescence intensity of the electrophoretically separated de-acetylated product and substrate peptide was measured. Activity in each sample was determined as the product to sum ratio (PSR): P/(S+P), where P is the peak height of the product peptide and S is the peak height of the substrate peptide. Percent inhibition (Pinh) is determined using the following equation: Pinh=(PSR0%−PSRinh)/(PSR0%−PSR100%)*100, where PSRinh is the product sum ratio in the presence of inhibitor, PSR0% is the average product sum ration in the absence of inhibitor and PSR 100% is the average product sum ratio in 100%-inhibition control samples. The IC50 values of inhibitors were determined by fitting the %-inhibition curves with 4 parameter dose-response model using XLfit 4 software. Ranges of IC50 values for compounds of the invention are disclosed in Table 26.

Row | IC50 [µM] | SMILES
1 | 1 to 10 | O=C(/C=C/c1ccccc1Nc1nc2ccccc2[nH]1)NO [Example I-1, (E)-3-(2-((1H-benzo[d]imidazol-2-yl)amino)phenyl)-N-hydroxyacrylamide]
2 | 1 to 10 | COCCn1c(CNc2ccccc2/C=C/C(=O)NO)nc2ccccc21 [Example I-2, (E)-N-hydroxy-3-(2-(((1-(2-methoxyethyl)-1H-benzo[d]imidazol-2-yl)methyl)amino)phenyl)acrylamide]
3 | 1 to 10 | COCCn1c(Nc2ccccc2/C=C/C(=O)NO)nc2ccccc21 [Example I-3, (E)-N-hydroxy-3-(2-((1-(2-methoxyethyl)-1H-benzo[d]imidazol-2-yl)amino)phenyl)acrylamide]
4 | 1 to 10 | O=C(/C=C/c1ccccc1NCc1nc2ccc(C(F)(F)F)cc2[nH]1)NO [Example I-4, (E)-N-hydroxy-3-(2-(((6-(trifluoromethyl)-1H-benzo[d]imidazol-2-yl)methyl)amino)phenyl)acrylamide]
5 | 1 to 10 | O=C(/C=C/c1ccccc1NC(=O)Nc1cccc(C(F)(F)F)c1)NO [Example I-5, (E)-N-hydroxy-3-(2-(3-(3-(trifluoromethyl)phenyl)ureido)phenyl)acrylamide]
6 | 1 to 10 | O=C(/C=C/c1ccccc1NC(=O)C1(O)CCC1)NO [Example I-6, (E)-1-hydroxy-N-(2-(3-(hydroxyamino)-3-oxoprop-1-en-1-yl)phenyl)cycobutane-1-carboxamide]
7 | 1 to 10 | O=C(/C=C/c1ccccc1NS(=O)(=O)c1cccc(C(F)(F)F)c1)NO [Example I-7, (E)-N-hydroxy-3-(2-(3-(trifluoromethyl)phenylsulfonamido)phenyl)acrylamide]
8 | 1 to 10 | NC1CCN(c2ccccc2/C=C/C(=O)NO)CC1 [Example I-8, (E)-3-(2-(4-aminopiperidin-1-yl)phenyl)-N-hydroxyacrylamide 2,2,2-trifluoroacetate]
9 | 1 to 10 | COc1ccc(CC(=O)NC2CCN(c3ccccc3/C=C/C(=O)NO)CC2)cc1 [Example I-9, (E)-N-hydroxy-3-(2-(4-(2-(4-methoxyphenyl)acetami-do)piperidin-1-yl)phenyl)acrylamide]
10 | 1 to 10 | O=C(/C=C/c1ccccc1N1CCC(NC(=O)COc2ccc(Cl)cc2)CC1)NO [Example I-10, (E)-3-(2-(4-(2-(4-chlorophenoxy)acetami-do)piperidin-1-yl)phenyl)-N-hydroxyacrylamide]
11 | 1 to 10 | O=C(/C=C/c1ccccc1N1CCC(NC(=O)c2ccc3cccnc3n2)CC1)NO [Example I-11, (E)-N-(1-(2-(3-(hydroxyamino)-3-oxoprop-1-en-1-yl)phenyl)piperidin-4-yl)-1,8-naphthyridine-2-carboxamide]
12 | 1 to 10 | CN1CC(C(=O)NC2CCN(c3ccccc3/C=C/C(=O)NO)CC2)C1 [Example I-12, (E)-N-(1-(2-(3-(hydroxyamino)-3-oxoprop-1-en-1-yl)phenyl)piperidin-4-yl)-1-methylazetidine-3-carboxamide]
13 | 1 to 10 | O=C(/C=C/c1ccccc1N1CCC(NC(=O)Cc2ccc(Cl)cc2)CC1)NO [Example I-13, (E)-3-(2-(4-(2-(4-chlorophenyl)acetamido)piperidin-1-yl)phenyl)-N-hydroxyacrylamide]
14 | 1 to 10 | Cc1cccc(C(=O)NC2CCN(c3ccccc3/C=C/C(=O)NO)CC2)c1 [Example I-14]
15 | 1 to 10 | Cc1oc(-c2ccc(Cl)cc2)cc1C(=O)NC1CCN(c2ccccc2/C=C/C(=O)NO)CC1 [Example I-15]
16 | 1 to 10 | Cc1c(C(=O)NC2CCN(c3ccccc3/C=C/C(=O)NO)CC2)cnn1-c1ccccc1 [Example I-16]
17 | 1 to 10 | CN(C)Cc1ccccc1CNC1CCN(c2ccccc2C=CC(=O)NO)CC1 [Example I-17, (E)-3-(2-(4-((2-((dimethylamino)methyl)benzyl)amino)piperidin-1-yl)phenyl-N-hydroxyacrylamide]
18 | 1 to 10 | CN(C)Cc1cccc(CNC2CCN(c3ccccc3/C=C/C(=O)NO)CC2)c1 [Example I-18, (E)-3-(2-(4-((3-((dimethylamino)methyl)benzyl)amino)piperidin-1-yl)phenyl)-N-hydroxyacrylamide]

Row | IC50 [µM] | SMILES
19 | 1 to 10 | O=C(/C=C/c1ccccc1N1CCN(C(=O)C2CCCO2)CC1)NO (centres unmarked) [Example I-19, (E)-N-hydroxy-3-(2-(4-(tetrahydrofuran-2-carbonyl)piperazin-1-yl)phenyl)acrylamide]
20 | 1 to 10 | O=C(/C=C/c1ccccc1N1CCN(C(=O)C2Cc3ccccc3C2)CC1)NO [Example I-20, (E)-3-(2-(4-(2,3-dihydro-1H-indene-2-carbonyl)-piperazin-1-yl)phenyl)-N-hydroxyacrylamide]
21 | 1 to 10 | COCC1(C(=O)N2CCN(c3ccccc3/C=C/C(=O)NO)CC2)CCC1 [Example I-21, (E)-N-hydroxy-3-(2-(4-(1-(methoxymethyl)cyclobu-tane-1-carbonyl)piperazin-1-yl)phenyl)acrylamide]
22 | 1 to 10 | O=C(/C=C/c1ccccc1N1CCN(C(=O)c2cc3ccccn3n2)CC1)NO [Example I-22, (E)-N-hydroxy-3-(2-(4-(pyrazolo[1,5-a]pyridine-2-carbonyl)piperazin-1-yl)phenyl)acrylamide]
23 | 1 to 10 | O=C(/C=C/c1ccccc1N1CCN(C(=O)C2CCC(F)(F)CC2)CC1)NO [Example I-23]
24 | 1 to 10 | O=C(/C=C/c1ccccc1N1CCN(C(=O)CC23CCCN2CCC3)CC1)NO [Example I-24, (E)-N-hydroxy-3-(2-(4-(2-(tetrahydro-1H-pyrrolizin-7a(5H)-yl)acetyl)piperazin-1-yl)phenyl)acrylamide]
25 | 1 to 10 | O=C(/C=C/c1ccccc1N1CCN(C(=O)c2cc3ccccc3[nH]2)CC1)NO [Example I-25, (E)-3-(2-(4-(1H-indole-2-carbonyl)piperazin-1-yl)phenyl)-N-hydroxyacrylamide]
26 | 1 to 10 | CC(C)S(=O)(=O)NC1CCN(c2ccccc2/C=C/C(=O)NO)CC1 [Example I-26]
27 | 1 to 10 | O=C(/C=C/c1ccccc1N1CCC(NS(=O)(=O)C2CCCC2)CC1)NO [Example I-27, (E)-3-(2-(4-(cyclopentanesulfonamido)piperidin-1-yl)phenyl)-N-hydroxyacrylamide]
28 | 1 to 10 | O=C(/C=C/c1ccccc1N1CCN(S(=O)(=O)c2ccc3c(c2)OCCO3)CC1)NO [Example I-28, (E)-3-(2-(4-((2,3-dihydrobenzo[b][1,4]di-oxin-6-yl)sulfonyl)piperazin-1-yl)phenyl)-N-hydroxyacrylamide]
29 | 1 to 10 | O=C(/C=C/c1ccccc1N1CCN(S(=O)(=O)c2ccccc2OC(F)(F)F)CC1)NO [Example I-29, (E)-N-hydroxy-3-(2-(4-((2-(trifluoromethoxy)phenyl)sulfonyl)piperazin-1-yl)phenyl)acrylamide]
30 | 1 to 10 | O=C(/C=C/c1ccccc1N1CCN(S(=O)(=O)c2ccc(OC(F)F)cc2)CC1)NO [Example I-30, (E)-3-(2-(4-((4-(difluoromethoxy)phenyl)sulfonyl)piperazin-1-yl)phenyl)-N-hydroxyacrylamide]
31 | 1 to 10 | COc1ccccc1S(=O)(=O)N1CCN(c2ccccc2/C=C/C(=O)NO)CC1 [Example I-31, (E)-N-hydroxy-3-(2-(4-((2-methoxyphenyl)sulfonyl)piperazin-1-yl)phenyl)acrylamide]
32 | 1 to 10 | O=C(/C=C/c1ccccc1N1CCN(S(=O)(=O)c2ccc(CNC(=O)c3ccccc3)s2)CC1)NO [Example I-32, (E)-N-((5-((4-(2-(3-(hydroxyamino)-3-oxoprop-1-en-1-yl)phenyl)piperazin-1-yl)sulfonyl)thiophen-2-yl)methyl)benzamide]
33 | 1 to 10 | Cc1c(S(=O)(=O)N2CCN(c3ccccc3/C=C/C(=O)NO)CC2)sc2ccc(Cl)cc12 [Example I-33, (E)-3-(2-(4-((5-chloro-3-methylbenzo[b]thiophen-2-yl)sulfonyl)piperazin-1-yl)phenyl)-N-hydroxyacrylamide]
34 | 1 to 10 | COc1ccc(OC)c(S(=O)(=O)N2CCN(c3ccccc3/C=C/C(=O)NO)CC2)c1 [Example I-34]
35 | 1 to 10 | O=C(/C=C/c1ccccc1N1CCN(C(=O)C2(c3cnccn3)CC2)CC1)NO [Example I-35, (2E)-N-hydroxy-3-(2-{4-[1-(pyrazin-2-yl)cyclopropanecarbonyl]piperazin-1-yl}phenyl)prop-2-enamide]
